How the values were obtained:
[1] = Minimum tmax of diclofenac following single oral dosing of 35 mg Zorvolex capsule in healthy human; format: ADME, organism-based, Plasma; parameters: dietary status Fed, dose 35 mg, dosed compound id 2.46815e+06, dosed compound name Diclofenac, gender Mixed, regimen Single, route oral; details: in vivo
[2] = Geometric mean for AUC (0-infinity) of diclofenac following single oral dosing of 35 mg Zorvolex capsule in healthy human; format: ADME, organism-based; parameters: time infinity, dietary status Fasting, dose 35 mg, dosed compound id 2.46815e+06, dosed compound name Diclofenac, gender Mixed, regimen Single, route oral; details: both, plasma, read-out: AUC (0-infinity)
[3] = Minimum tmax of diclofenac following single oral dosing of 50 mg Cataflam tablet in healthy human; format: ADME, organism-based, Plasma; parameters: dietary status Fasting, dose 50 mg, dosed compound id 2.46815e+06, dosed compound name Diclofenac potassium, gender Mixed, regimen Single, route oral; details: in vivo
[4] = Mean maximum Tmax value of diclofenac potassium following oral dosing of Cataflam 50 mf tablet in healthy human; format: ADME, organism-based; parameters: dietary status Fasting, dose 50 mg, dosed compound id 2.46815e+06, dosed compound name Diclofenac potassium, gender Mixed, regimen Single, route oral, study doses 50 mg; details: both, plasma, 50 mg, read-out: Maximum Tmax
[5] = Mean Cmax value of diclofenac following single oral dosing of 18 mg Zorvolex capsule in healthy human; format: ADME, organism-based; parameters: dietary status Fasting, dose 18 mg, dosed compound id 2.46815e+06, dosed compound name Diclofenac, gender Mixed, regimen Single, route oral; details: both, plasma
[6] = Maximum tmax of diclofenac following single oral dosing of 18 mg Zorvolex capsule in healthy human; format: ADME, organism-based, Plasma; parameters: dietary status Fasting, dose 18 mg, dosed compound id 2.46815e+06, dosed compound name Diclofenac, gender Mixed, regimen Single, route oral; details: in vivo
[7] = Mean Tmax of diclofenac following single oral dosing of 25 mg diclofenac potassium softgel capsule in healthy human; format: ADME, organism-based; parameters: dietary status Fed, dose 25 mg, dosed compound id 2.46815e+06, dosed compound name Diclofenac potassium, gender Mixed, regimen Single, route oral, study doses 25/50 mg; details: both, plasma
[8] = (§1) Mean AUC (0-infinity) value of diclofenac following single oral dosing of 35 mg Zorvolex capsule in healthy human; format: ADME, organism-based; parameters: time infinity, dietary status Fasting, dose 35 mg, dosed compound id 2.46815e+06, dosed compound name Diclofenac, gender Mixed, regimen Single, route oral; details: both, plasma, read-out: AUC (0-infinity)
[9] = (§2) Mean apparent terminal elimination rate constant value of diclofenac following single oral dosing of 50 mg Cataflam tablet in healthy human; format: ADME, organism-based, Plasma; parameters: dietary status Fasting, dose 50 mg, dosed compound id 2.46815e+06, dosed compound name Diclofenac potassium, gender Mixed, regimen Single, route oral; details: in vivo
[10] = Geometric mean for AUC (0-t) of diclofenac following single oral dosing of 18 mg Zorvolex capsule in healthy human; format: ADME, organism-based; parameters: dietary status Fasting, dose 18 mg, dosed compound id 2.46815e+06, dosed compound name Diclofenac, gender Mixed, regimen Single, route oral; details: both, plasma
[11] = Mean minimum Tmax value of diclofenac potassium following oral dosing of PRO-513 50 mg sachet in healthy human; format: ADME, organism-based, Plasma; parameters: dietary status Fasting, dose 50 mg, dosed compound id 2.46815e+06, dosed compound name Diclofenac potassium, gender Mixed, regimen Single, route oral, study doses 50 mg; details: in vivo
[12] = Mean AUC (0-t) value of diclofenac following single oral dosing of 35 mg Zorvolex capsule in healthy human; format: ADME, organism-based; parameters: dietary status Fasting, dose 35 mg, dosed compound id 2.46815e+06, dosed compound name Diclofenac, gender Mixed, regimen Single, route oral; details: both, plasma
[13] = Mean Kel of diclofenac potassium following oral dosing of PRO-513 50 mg sachet in healthy human; format: ADME, organism-based; parameters: dietary status Fed, dose 50 mg, dosed compound id 2.46815e+06, dosed compound name Diclofenac potassium, gender Mixed, regimen Single, route oral, study doses 50 mg; details: both, plasma
[14] = Mean AUC (0-t) of diclofenac following single oral dosing of 25 mg diclofenac potassium softgel capsule in healthy human; format: ADME, organism-based; parameters: dietary status Fasting, dose 25 mg, dosed compound id 2.46815e+06, dosed compound name Diclofenac potassium, gender Mixed, regimen Single, route oral, study doses 25/50 mg; details: both, plasma
[15] = as §2; format: ADME, organism-based, Plasma; parameters: dietary status Fed, dose 50 mg, dosed compound id 2.46815e+06, dosed compound name Diclofenac potassium, gender Mixed, regimen Single, route oral; details: in vivo
[16] = Mean Cmax of diclofenac potassium following oral dosing of Cataflam 50 mf tablet in healthy human; format: ADME, organism-based; parameters: dietary status Fasting, dose 50 mg, dosed compound id 2.46815e+06, dosed compound name Diclofenac potassium, gender Mixed, regimen Single, route oral, study doses 50 mg; details: both, plasma, 50 mg
[17] = Mean AUC(0-infinity) of diclofenac potassium following oral dosing of Cataflam 50 mf tablet in healthy human; format: ADME, organism-based; parameters: dietary status Fed, dose 50 mg, dosed compound id 2.46815e+06, dosed compound name Diclofenac potassium, gender Mixed, regimen Single, route oral, study doses 50 mg, time infinity; details: both, plasma, 50 mg, read-out: AUC(0-infinity)
clinical [18] = details: both, human, plasma, po, 50 mg
Description: Mean terminal elimination half-life of diclofenac following single oral dosing of 50 mg diclofenac potassium softgel capsule in healthy human

[19] = Geometric mean for apparent terminal elimination rate constant of diclofenac following single oral dosing of 18 mg Zorvolex capsule in healthy human; format: ADME, organism-based, Plasma; parameters: dietary status Fasting, dose 18 mg, dosed compound id 2.46815e+06, dosed compound name Diclofenac, gender Mixed, regimen Single, route oral; details: in vivo
[20] = Mean Cmax value of diclofenac following single oral dosing of 35 mg Zorvolex capsule in healthy human; format: ADME, organism-based; parameters: dietary status Fed, dose 35 mg, dosed compound id 2.46815e+06, dosed compound name Diclofenac, gender Mixed, regimen Single, route oral; details: both, plasma
[21] = Mean apparent terminal elimination rate constant value of diclofenac following single oral dosing of 18 mg Zorvolex capsule in healthy human; format: ADME, organism-based, Plasma; parameters: dietary status Fasting, dose 18 mg, dosed compound id 2.46815e+06, dosed compound name Diclofenac, gender Mixed, regimen Single, route oral; details: in vivo
[22] = as §1; format: ADME, organism-based; parameters: time infinity, dietary status Fed, dose 35 mg, dosed compound id 2.46815e+06, dosed compound name Diclofenac, gender Mixed, regimen Single, route oral; details: both, plasma, read-out: AUC (0-infinity)
[23] = Mean Tmax of diclofenac following single oral dosing of 25 mg diclofenac potassium soft gelatin capsule in healthy human; format: ADME, organism-based; parameters: dietary status Fasting, dose 25 mg, dosed compound id 2.46815e+06, dosed compound name Diclofenac potassium, gender Mixed, regimen Single, route oral, study doses 25/50 mg; details: both, plasma
clinical [24] = details: both, human, plasma, po, 35 mg
[25] = Mean AUC (0-infinity) value of diclofenac following single oral dosing of 50 mg Cataflam tablet in healthy human; format: ADME, organism-based; parameters: time infinity, dietary status Fed, dose 50 mg, dosed compound id 2.46815e+06, dosed compound name Diclofenac potassium, gender Mixed, regimen Single, route oral; details: both, plasma, read-out: AUC (0-infinity)
[26] = Geometric mean for AUC (0-t) of diclofenac following single oral dosing of 35 mg Zorvolex capsule in healthy human; format: ADME, organism-based; parameters: dietary status Fasting, dose 35 mg, dosed compound id 2.46815e+06, dosed compound name Diclofenac, gender Mixed, regimen Single, route oral; details: both, plasma
[27] = Mean median Tmax value of diclofenac potassium following oral dosing of Cataflam 50 mf tablet in healthy human; format: ADME, organism-based; parameters: dietary status Fed, dose 50 mg, dosed compound id 2.46815e+06, dosed compound name Diclofenac potassium, gender Mixed, regimen Single, route oral, study doses 50 mg; details: both, plasma, 50 mg, read-out: Median Tmax
[28] = Mean AUC (0-infinity) value of diclofenac following single oral dosing of 18 mg Zorvolex capsule in healthy human; format: ADME, organism-based; parameters: time infinity, dietary status Fasting, dose 18 mg, dosed compound id 2.46815e+06, dosed compound name Diclofenac, gender Mixed, regimen Single, route oral; details: both, plasma, read-out: AUC (0-infinity)
[29] = Mean AUC(0-t) of diclofenac following single oral dosing of 25 mg diclofenac potassium soft gelatin capsule in healthy human; format: ADME, organism-based; parameters: dietary status Fasting, dose 25 mg, dosed compound id 2.46815e+06, dosed compound name Diclofenac potassium, gender Mixed, regimen Single, route oral, study doses 25/50 mg; details: both, plasma
[30] = Mean Kel of diclofenac potassium following oral dosing of Cataflam 50 mf tablet in healthy human; format: ADME, organism-based; parameters: dietary status Fed, dose 50 mg, dosed compound id 2.46815e+06, dosed compound name Diclofenac potassium, gender Mixed, regimen Single, route oral, study doses 50 mg; details: both, plasma, 50 mg
[31] = Mean Cmax of diclofenac following single oral dosing of 50 mg diclofenac potassium softgel capsule in healthy human; format: ADME, organism-based; parameters: dietary status Fasting, dose 50 mg, dosed compound id 2.46815e+06, dosed compound name Diclofenac potassium, gender Mixed, regimen Single, route oral, study doses 25/50 mg; details: both, plasma
[32] = Median tmax of diclofenac following single oral dosing of 18 mg Zorvolex capsule in healthy human; format: ADME, organism-based; parameters: dietary status Fasting, dose 18 mg, dosed compound id 2.46815e+06, dosed compound name Diclofenac, gender Mixed, regimen Single, route oral; details: both, plasma, read-out: Median Tmax

## O=C(O)Cc1ccccc1Nc1c(Cl)cccc1Cl [DICLOFENAC]
[1]
  Minimum Tmax: 0.5 h
[2]
  AUC(0-inf): 979 ng·h/mL
[3]
  Minimum Tmax: 0.25 h
[4]
  Tmax: 4 h
[5]
  Cmax: 496 ng/mL
[6]
  Maximum Tmax: 4.5 h
[7]
  Tmax: 1.02 h
[8]
  AUC(0-inf): 1000 ng·h/mL
[9]
  lambda-z: 0.333 h⁻¹
[10]
  AUC(0-t): 478 ng·h/mL
[11]
  Minimum Tmax: 0.17 h
[12]
  AUC(0-t): 1000 ng·h/mL
[13]
  k el: 0.000108 s⁻¹
[14]
  AUC(0-t): 691 ng·h/mL
[15]
  lambda-z: 0.332 h⁻¹
[16]
  Cmax: 1160 ng/mL
[17]
  AUC(0-inf): 1070 ng·h/mL
Clinical [18]
  half-life: 1.07 h
[19]
  lambda-z: 0.384 h⁻¹
[20]
  Cmax: 355 ng/mL
[21]
  lambda-z: 0.399 h⁻¹
[22]
  AUC(0-inf): 876 ng·h/mL
[23]
  Tmax: 0.45 h
Clinical [24]
  half-life: 2.24 h
[25]
  AUC(0-inf): 1200 ng·h/mL
[26]
  AUC(0-t): 980 ng·h/mL
[27]
  Tmax: 1.25 h
[28]
  AUC(0-inf): 499 ng·h/mL
[29]
  AUC(0-t): 579 ng·h/mL
[30]
  k el: 0.000136 s⁻¹
[31]
  Cmax: 2360 ng/mL
[32]
  Tmax: 1 h

Source: ChEMBL document CHEMBL3509421, “FDA drug approval package for diclofenac acid (NDA 22-202 CP, Ref ID: 3374276)”
